In US20240174671A1, “New 2,3-Dihydro-1H-pyrrolo[3,2-b]pyridine Derivatives as Sigma Ligands” (ACONDICIONAMIENTO TARRASENSE, priority 2021, published 2024):

Tests used:
sigma-2 site = sigma-2 site (Homo sapiens, UniProt Q5BJF2); settings: background statement; cited from earlier work
[1] = system: mechanical hypersensitivity in SNI mice; settings: SNI mice model of neuropathic pain; cited from earlier work
human σ2/TMEM97 receptor = target: T1, human σ2/TMEM97 receptor (Homo sapiens, UniProt Q5BJF2); test: Binding assay to human σ2/TMEM97 receptor ([3H]-DTG); settings: transfected HEK-293 membranes, 10 nM [3H]-DTG, 25° C., 120 minutes; read-out: Binding σ-[…] (binding to σ2-receptor expressed as Ki)
T1 construct: expressed in transfected cells; host or cells: HEK-293
T1 sequence (Q5BJF2 whole entry): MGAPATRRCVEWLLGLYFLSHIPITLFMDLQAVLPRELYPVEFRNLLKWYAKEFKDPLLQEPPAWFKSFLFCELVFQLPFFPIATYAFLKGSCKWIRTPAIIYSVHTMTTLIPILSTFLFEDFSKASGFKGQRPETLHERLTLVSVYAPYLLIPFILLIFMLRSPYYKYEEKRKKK
How it was run: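 Membranes from transfected HEK-293 cells incubated with 10 nM [3H]-DTG in 50 mM Tris-HCl pH 8.0, 120 min at 25 °C; non-specific binding defined with 10 μM haloperidol. Bound radioactivity counted after filtration; compounds tested as % inhibition at 1 or 10 μM or at five concentrations for Ki.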

human σ1 receptor = target: T2, human σ1 receptor (Homo sapiens, UniProt Q99720); test: Human σ1 receptor radioligand assay ([3H](+)-pentazocine); format: binding; settings: transfected HEK-293 membranes, 5 nM [3H](+)-pentazocine, 37° C., 120 minutes; read-out: Binding σ-[…] (binding to σ1-receptor expressed as Ki)
T2 construct: expressed in transfected cells; host or cells: HEK-293
T2 sequence (Q99720 whole entry): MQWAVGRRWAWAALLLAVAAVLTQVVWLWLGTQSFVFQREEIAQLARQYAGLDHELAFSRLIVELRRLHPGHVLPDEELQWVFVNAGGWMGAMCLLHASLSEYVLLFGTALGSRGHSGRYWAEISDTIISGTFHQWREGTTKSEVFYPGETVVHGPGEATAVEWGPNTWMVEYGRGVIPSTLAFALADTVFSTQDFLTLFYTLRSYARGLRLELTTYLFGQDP
How it was run: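 Binding used [3H](+)-pentazocine, 120 min at 37° C, with non-specific binding defined by 10 μM haloperidol. Bound radioligand was collected by filtration, washed with ice-cold 10 mM Tris-HCl pH 7.4 and counted by scintillation.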

Chain of sigma-2 site (Q5BJF2 whole entry): as the sequence (Q5BJF2 whole entry) above

Row | Molecule | affinity for the sigma-2 site (sigma-2 site) | mechanical hypersensitivity [1] | Ki (human σ2/TMEM97 receptor) [nM] | Ki (human σ1 receptor) [nM]
1 | (+)-SKF-10047 | micromolar affinity | – | – | –
2 | UKH-1114 | – | relieved mechanical hypersensitivity | – | –
3 | Cc1ccc2c(n1)C(C)(C)CN2C(=O)N[C@H]1CCN(Cc2ccccc2)C1 [Example 21, (S)—N-(1-benzylpyrrolidin-3-yl)-3,3,5-trimethyl-2,3-dihydro-1H-pyrrolo[3,2-b]pyridine-1-carboxamide] | – | – | > 1000 | 100 to 500
4 | CN(Cc1ccccc1)[C@H]1CC[C@H](N(C)C(=O)N2CC(C)(C)c3ncccc32)CC1 [Example 78, N-((1r,4r)-4-(benzyl(methyl)amino)cyclohexyl)-N,3,3-trimethyl-2,3-dihydro-1H-pyrrolo[3,2-b]pyridine-1-carboxamide] | – | – | < 100 | 500 to 1000
5 | Cc1ccc2c(n1)CCN2C(=O)N1CCC(N(C)Cc2ccccc2)CC1 [Example 49] | – | – | 100 to 500 | 100 to 500
6 | CC(C)CCN1CCC(CNC(=O)N2CC(C)(C)c3ncccc32)CC1 [Example 106, N-((1-isopentylpiperidin-4-yl)methyl)-3,3-dimethyl-2,3-dihydro-1H-pyrrolo[3,2-b]pyridine-1-carboxamide] | – | – | 100 to 500 | 500 to 1000
7 | CC1(C)CN(C(=O)NCC2CCN(Cc3ccccc3)CC2)c2cccnc21 [Example 69, N-((1-benzylpiperidin-4-yl)methyl)-3,3-dimethyl-2,3-dihydro-1H-pyrrolo[3,2-b]pyridine-1-carboxamide] | – | – | 100 to 500 | 100 to 500
8 | CC1(C)CN(C(=O)N2CCC3(CCN(Cc4ccc(F)c(C#N)c4)CC3)CC2)c2cccnc21 [Example 147, 5-((9-(3,3-dimethyl-2,3-dihydro-1H-pyrrolo[3,2-b]pyridine-1-carbonyl)-3,9-diazaspiro[5.5]undecan-3-yl)methyl)-2-fluorobenzonitrile] | – | – | < 100 | < 100
9 | CCOCCN1CCC(NC(=O)N2CC(C)(C)c3nc(C)ccc32)CC1 [Example 28, N-(1-(2-ethoxyethyl)piperidin-4-yl)-3,3,5-trimethyl-2,3-dihydro-1H-pyrrolo[3,2-b]pyridine-1-carboxamide] | – | – | > 1000 | 100 to 500
10 | Cc1ccc2c(n1)C(C)(C)CN2C(=O)NCC(c1ccccc1F)N(C)C (stereo not drawn) [Example 19, N-(2-(dimethylamino)-2-(2-fluorophenyl)ethyl)-3,3,5-trimethyl-2,3-dihydro-1H-pyrrolo[3,2-b]pyridine-1-carboxamide] | – | – | > 1000 | 100 to 500
11 | Cc1ccc2c(n1)C(C)(C)CN2C(=O)N1CCC(N(C)Cc2ccc(F)c(C#N)c2)CC1 [Example 60, 2-fluoro-5-((methyl(1-(3,3,5-trimethyl-2,3-dihydro-1H-pyrrolo[3,2-b]pyridine-1-carbonyl)piperidin-4-yl)amino)methyl)benzonitrile] | – | – | < 100 | 100 to 500
12 | COc1ccc2c(n1)C(C)(C)CN2C(=O)NC[C@@H](c1ccccc1)N(C)C [Example 17, (R)—N-(2-(dimethylamino)-2-phenylethyl)-5-methoxy-3,3-dimethyl-2,3-dihydro-1H-pyrrolo[3,2-b]pyridine-1-carboxamide] | – | – | > 1000 | < 100
13 | Cc1ccc2c(n1)C(C)(C)CN2C(=O)N1CCC2(CCN(Cc3cccnc3)CC2)C1 [Example 98, (8-(pyridin-3-ylmethyl)-2,8-diazaspiro[4.5]decan-2-yl)(3,3,5-trimethyl-2,3-dihydro-1H-pyrrolo[3,2-b]pyridin-1-yl)methanone] | – | – | < 100 | > 1000
14 | Cc1ccc2c(n1)C(C)(C)CN2C(=O)N1CCCCC(NCCC(C)C)C1 (stereo not drawn) [Example 120, (3-(Isopentylamino)azepan-1-yl)(3,3,5-trimethyl-2,3-dihydro-1H-pyrrolo[3,2-t]pyridin-1-yl)methanone] | – | – | < 100 | 500 to 1000
15 | CN(Cc1cc(F)cc(C#N)c1)C1CCN(C(=O)N2CC(C)(C)c3ncccc32)CC1 [Example 76, 3-(((1-(3,3-dimethyl-2,3-dihydro-1H-pyrrolo[3,2-b]pyridine-1-carbonyl)piperidin-4-yl)(methyl)amino)methyl)-5-fluorobenzonitrile] | – | – | 500 to 1000 | > 1000
16 | CN(Cc1ccc(C#N)c(F)c1)C1CCN(C(=O)N2CC(C)(C)c3ncccc32)CC1 [Example 87, 4-(((1-(3,3-dimethyl-2,3-dihydro-1H-pyrrolo[3,2-b]pyridine-1-carbonyl)piperidin-4-yl)(methyl)amino)methyl)-2-fluorobenzonitrile] | – | – | < 100 | 500 to 1000
